Test results taken from BindingDB's records for patent WO2022098809 (Merck Sharp &Amp, 2022).

Target: Mitogen-activated protein kinase kinase kinase kinase 1 (Homo sapiens, UniProt Q92918)
Test: HPK1-SLP76 TR-FRET ASSAY
Protocol: Compounds are serially diluted (3-fold in 100% DMSO) across a 384-well polypropylene source plated from column 3 to column 12 and column 13 to column 22, to yield 10 concentration dose responses for each test compound. Columns 1, 2, 23 and 24 contain either only DMSO or a pharmacological known control inhibitor. […] Enzyme, Substrate and Stop/Detection solutions are prepared in assay buffer. […] Kinase reaction is initiated with addition of 2.5 μL of substrate solution (ATP 10uM and SLP7610 nM Final) and allowed to proceed for 60 minutes. […] Plates are incubated at room temperature for 30 minutes. Reactions are initiated by addition of 2.5 μL of 3x substrate solution (10 nM SLP76 and 10 uM ATP FInal) using BioRaptr. Plates are incubated at room temperature for one hour.

Sequence of Mitogen-activated protein kinase kinase kinase kinase 1 (Q92918 whole entry): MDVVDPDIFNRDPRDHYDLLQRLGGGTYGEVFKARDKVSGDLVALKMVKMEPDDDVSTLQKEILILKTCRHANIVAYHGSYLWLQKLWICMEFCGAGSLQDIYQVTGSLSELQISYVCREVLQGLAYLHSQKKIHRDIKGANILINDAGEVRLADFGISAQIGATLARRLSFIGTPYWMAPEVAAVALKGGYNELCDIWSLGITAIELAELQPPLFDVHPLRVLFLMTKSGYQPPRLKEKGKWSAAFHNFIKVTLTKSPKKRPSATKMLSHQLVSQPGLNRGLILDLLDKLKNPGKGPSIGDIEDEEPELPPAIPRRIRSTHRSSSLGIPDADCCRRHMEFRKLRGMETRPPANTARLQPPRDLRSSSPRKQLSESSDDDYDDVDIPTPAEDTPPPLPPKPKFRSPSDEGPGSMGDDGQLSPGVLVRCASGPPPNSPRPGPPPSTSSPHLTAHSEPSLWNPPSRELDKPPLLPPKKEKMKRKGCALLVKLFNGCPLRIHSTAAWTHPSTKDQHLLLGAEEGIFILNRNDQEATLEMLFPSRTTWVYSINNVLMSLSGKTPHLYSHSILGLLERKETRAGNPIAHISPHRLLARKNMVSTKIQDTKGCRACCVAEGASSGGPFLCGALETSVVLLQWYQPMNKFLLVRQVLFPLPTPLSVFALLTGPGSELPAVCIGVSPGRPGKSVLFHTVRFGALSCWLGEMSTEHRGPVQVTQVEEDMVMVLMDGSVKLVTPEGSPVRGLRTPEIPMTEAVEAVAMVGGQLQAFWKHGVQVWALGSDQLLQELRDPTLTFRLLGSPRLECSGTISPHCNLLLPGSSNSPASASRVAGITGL

| SMILES | IC50 [nM] |
| --- | --- |
| COc1cc2c(cc1Nc1ncc(C(N)=O)c(Nc3ccc(C)cc3C3CC3)n1)CN(C)CC2 [WO2022098809, Example 4-26] | 0.17 |
| CCc1cc(C)ccc1Nc1nc(Nc2cc3c(cc2OC)CCN(C)C3)ncc1C(N)=O [WO2022098809, Example 4-27] | 0.08 |
| Cc1cc(F)c(Nc2nc(Nc3cc4c(cc3F)CCN(C)C4)ncc2C(N)=O)c(C(F)(F)F)c1 [WO2022098809, Example 4-29] | 0.2 |

Results, then the compound that gave them:

| IC50 [nM] | SMILES |
| --- | --- |
| 0.26 | COc1cc2c(cc1Nc1ncc(C(N)=O)c(Nc3ccc(C)cc3C(C)(C)C)n1)CN(C)CC2 [WO2022098809, Example 4-28] |
| 0.2 | COc1cc2c(cc1Nc1ncc(C(N)=O)c(Nc3c(F)cccc3CC(F)F)n1)CN(C)CC2 [WO2022098809, Example 4-31] |
| 1.13 | CN1CCc2cc(F)c(Nc3ncc(C(N)=O)c(Nc4c(F)ccc5c4OC(C)(C)C5)n3)cc2C1 [WO2022098809, Example 4-32] |
| 158 | Cc1cccc(F)c1Nc1nc(Nc2c(C)nn(C)c2C)ncc1C(N)=O [WO2022098809, Example 4-35] |
